Source: ChEMBL document CHEMBL1201862, “PubChem BioAssay data set” (2004)
Calls of active or inactive are those of the source.

Columns and labels:
[1] = target: Peroxisome proliferator-activated receptor gamma/Nuclear receptor coactivator 2 (Homo sapiens, UniProt P37231); test: (§1) TR-FRET dose response biochemical High Throughput Screening assay for agonists of the steroid receptor coactivator 2 (SRC-2) recruitment by the peroxisome proliferator-activated receptor gamma (PPAR gamma): non-selective agonists. [Related pubchem assays: 1297, 1032 ]; type: functional
[2] = target: Peroxisome proliferator-activated receptor gamma/Nuclear receptor coactivator 3 (Homo sapiens, UniProt P37231); test: as §1, with “3 (SRC-3)” for “2 (SRC-2)”, “1301 (Confirmation screen.), 1048 (Primary screen.)]” for “1297, 1032 ]”; type: functional
[3] = target: Peroxisome proliferator-activated receptor gamma/Nuclear receptor coactivator 1 (Homo sapiens, UniProt P37231); test: as §1, with “1 (SRC-1)” for “2 (SRC-2)”, “assays (depositor defined):AID1300, AID1808, AID504735, AID631]” for “assays: 1297, 1032 ]”; type: protein assay
[4] = target: Cysteine protease ATG4B (Homo sapiens, UniProt Q9Y4P1); type: functional;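 further: Fluorescence-based dose-response confirmation assay measuring inhibition of ATG4B activity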
[5] = target: Phospholipase A2 (Homo sapiens, UniProt P04054); type: functional;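 further: confirmatory dose-response counterscreen on phospholipase A2, testing hits that came from an ultra-high-throughput screen for ATG4B inhibitors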
[6] = DRD fibroblast viability loss – cell-based, non-viral oncogenic, luminescence, dose response (AID 1934); type: functional; details: Homo sapiens
[7] = test system: HEK293; test: cells; type: functional, cell-based; details: Homo sapiens
[8] = luciferase reporter signal suppression in cells – H4 neuroglioma cells, luminescence, dose response (AID 1990); type: functional, cell-based
[9] = test system: HEK293; test: inhibition of NOD1-driven NF-kB reporter – cell-based, luminescence, uHTS, primary screen (AID 1578); type: functional; details: Homo sapiens
[10] = test system: HEK293; test: cells; type: functional, cell-based; details: Homo sapiens; remark: listed apart in the source
[11] = test system: Streptococcus sp. 'group A'; test: Streptococcus pyogenes SK(-)GAS viability under kanamycin – luminescence, BacTiterGlo, confirmation, counter-screen for streptokinase expression inhibitor project, dose response (AID 1900); type: functional, organism-based
[12] = target: T1, Streptokinase A (Streptococcus pyogenes serotype M1, UniProt P10520); test: viability-normalized secreted streptokinase activity reduction – plasminogen activation absorbance, OD405, dose response (AID 1914); type: functional, Streptococcus pyogenes M1 GAS;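 further: secreted streptokinase activity via plasminogen activation per viability signal from cell pellet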
T1 sequence (P10520 whole entry): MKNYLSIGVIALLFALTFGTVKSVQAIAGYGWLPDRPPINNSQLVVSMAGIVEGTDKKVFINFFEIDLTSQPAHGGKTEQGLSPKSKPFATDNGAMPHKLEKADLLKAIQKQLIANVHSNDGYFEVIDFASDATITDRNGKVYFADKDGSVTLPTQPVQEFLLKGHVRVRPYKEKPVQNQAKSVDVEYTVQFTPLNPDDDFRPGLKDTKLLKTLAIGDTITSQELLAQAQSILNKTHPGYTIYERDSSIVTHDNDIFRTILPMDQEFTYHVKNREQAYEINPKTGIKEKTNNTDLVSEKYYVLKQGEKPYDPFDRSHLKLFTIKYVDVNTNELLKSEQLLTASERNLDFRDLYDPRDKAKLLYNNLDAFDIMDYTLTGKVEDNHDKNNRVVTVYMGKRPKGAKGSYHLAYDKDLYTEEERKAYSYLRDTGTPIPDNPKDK

[13] = alpha-synuclein stem-loop luciferase translation blockers – H4 neuroglioma cells, luminescence, confirmation (AID 1988); type: functional, cell-based
[14] = test system: BJ; test: BJ-TERT fibroblast viability loss – cell-based, RAS-independent, luminescence, dose response (AID 1933); type: functional; details: Homo sapiens
[15] = fluconazole-exposed Candida albicans growth modulators – fluorescence, retest, confirmation (AID 2467); type: functional, cell-based
[16] = test system: Streptococcus; test: GAS UMAA2166 growth inhibition – luminescence, BacTiterGlo, counter-screen for streptokinase expression inhibitor project, dose response (AID 1915); type: functional, organism-based;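 further: potency for reduction of bacterial viability or growth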
[17] = Counterscreen for AddAB inhibitors: absorbance-based bacterial cell-based high throughput dose response assay for inhibitors of bacterial viability. [Related pubchem assays (depositor defined):AID435030, AID449728, AID449731, AID488942, AID488955, AID488956]; type: functional
[18] = test system: BJ; test: growth inhibition of engineered Ras-driven BJ cells – cell-based, alamar blue fluorescence, cherrypicked samples, dose response (AID 2631); type: functional; details: Homo sapiens;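 further: confirmatory dose-response assay in RAS-dependent BJ fibroblasts engineered with TERT, LT and ST, with cytotoxicity read by fluorescence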
[19] = test system: INS1; test: INS-1E survival protection against cytokine death – cell-based, luminescence, retest, dose response (AID 449756); type: functional; details: Rattus norvegicus;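 further: cell death triggered by IL-1 beta plus TNF-alpha plus IFN-gamma mixture; protective hits raise ATP signal compared with cytokine alone wells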
[20] = cells; type: functional, cell-based
[21] = NIH-3T3 fibroblast cytotoxicity, dose response, cytotoxicity control, cell-based, fluorescence, Alamar Blue, secondary assay (AID 2327); type: functional;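 further: NIH-3T3 mouse fibroblasts cultured with fluconazole at 8 µg/mL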
[22] = Luminescence Cell-Based Dose Response HTS to Identify Inhibitors of 5'UTR Stem-Loop Driven Prion Protein mRNA Translation in H4 Neuroglioblastoma Cells. [Related pubchem assays: 1827 (Project Summary), 1813 (Primary HTS)]; type: functional
[23] = test system: BJ; test: cells; type: functional, cell-based; details: Homo sapiens
[24] = Luminescence-based dose response cell-based high throughput screening assay for cytotoxic compounds using the IEC-6 intestinal epithelial cell line. [Related pubchem assays: 1858 (Summary AID.), 1825 (Counterscreen.), 1907 (Confirmation screen.)]; type: functional
[25] = target: Nucleotide-binding oligomerization domain-containing protein 2 (Homo sapiens, UniProt Q9HC29); test: inhibition of NOD2-driven NF-kB reporter – cell-based, luminescence, uHTS, HEK293 (AID 1566); type: functional
[26] = target: Exodeoxyribonuclease V (Escherichia coli (strain K12), UniProt P04993+P07648+P08394); test: RecBCD inhibition via phage-restricted bacterial growth – absorbance, V66 E. coli, mutant T4 phage, counter-screen for AddAB inhibitor project, dose response (AID 492957); type: functional, cell-based, Escherichia coli str. K-12 substr. MG1655
[27] = target: T2, Heat shock factor protein 1 (Mus musculus, UniProt P38532); test: decrease of HSF1-responsive luciferase luminescence – cell-based, NIH3T3, dose retest, confirmation (AID 2382); type: functional;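 further: NIH3T3 fibroblasts with HSF1-driven luciferase reporter stressed by proteasome inhibitor MG132; luminescence from HSF1-driven luciferase expression after 8 hours of MG132 stress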
T2 sequence (P38532 whole entry): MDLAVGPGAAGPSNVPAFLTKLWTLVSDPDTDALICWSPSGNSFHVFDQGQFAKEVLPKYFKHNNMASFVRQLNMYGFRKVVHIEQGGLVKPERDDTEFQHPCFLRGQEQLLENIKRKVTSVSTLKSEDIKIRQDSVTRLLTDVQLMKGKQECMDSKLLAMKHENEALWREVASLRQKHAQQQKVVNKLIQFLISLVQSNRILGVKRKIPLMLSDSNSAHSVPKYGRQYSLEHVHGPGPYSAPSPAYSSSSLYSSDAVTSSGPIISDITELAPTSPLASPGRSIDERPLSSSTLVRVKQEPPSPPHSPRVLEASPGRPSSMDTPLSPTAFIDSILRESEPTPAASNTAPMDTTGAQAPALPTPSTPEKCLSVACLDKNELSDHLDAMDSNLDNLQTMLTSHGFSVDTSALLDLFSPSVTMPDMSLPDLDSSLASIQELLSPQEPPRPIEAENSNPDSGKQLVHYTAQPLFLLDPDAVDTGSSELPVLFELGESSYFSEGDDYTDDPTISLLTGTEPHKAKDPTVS

[28] = test system: HEK293; test: NOD2 signaling inhibitors in MDP-stimulated cells, cell-based, uHTS, luminescence (AID 2001); type: functional; details: Homo sapiens
[29] = test system: BJ; test: BJ-TERT-LT-ST fibroblast viability loss – cell-based, RAS-independent, luminescence, dose response (AID 1935); type: functional; details: Homo sapiens;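 further: BJ fibroblasts immortalized with TERT plus LT and ST oncogenes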
[30] = cells; type: functional, cell-based; remark: listed apart in the source
[31] = target: Heat shock protein HSP 90-alpha (Homo sapiens, UniProt P07900); type: functional, organism-based
[32] = target: T3, Intestinal-type alkaline phosphatase (Homo sapiens, UniProt P09923); test: inhibition of human intestinal alkaline phosphatase – biochemical, dose response (AID 488876); type: functional
[33] = target: Intestinal-type alkaline phosphatase (Mus musculus, UniProt P24822); test: PubChem AID 488785; type: functional
[34] = target: T3, Intestinal-type alkaline phosphatase; test: Dose Response confirmation of uHTS hits from a small molecule inhibitors of human intestinal alkaline phosphatase via a luminescent assay. [Related pubchem assays (depositor defined):AID2544, AID2574]; type: functional
[35] = target: T4, Alkaline phosphatase, tissue-nonspecific isozyme (Homo sapiens, UniProt P05186); test: TNAP enzyme inhibition by screening hits, dose response, selectivity assay for mouse IAP inhibitor project, biochemical, human TNAP, uHTS hits (AID 488906); type: functional
T4 sequence (P05186 whole entry): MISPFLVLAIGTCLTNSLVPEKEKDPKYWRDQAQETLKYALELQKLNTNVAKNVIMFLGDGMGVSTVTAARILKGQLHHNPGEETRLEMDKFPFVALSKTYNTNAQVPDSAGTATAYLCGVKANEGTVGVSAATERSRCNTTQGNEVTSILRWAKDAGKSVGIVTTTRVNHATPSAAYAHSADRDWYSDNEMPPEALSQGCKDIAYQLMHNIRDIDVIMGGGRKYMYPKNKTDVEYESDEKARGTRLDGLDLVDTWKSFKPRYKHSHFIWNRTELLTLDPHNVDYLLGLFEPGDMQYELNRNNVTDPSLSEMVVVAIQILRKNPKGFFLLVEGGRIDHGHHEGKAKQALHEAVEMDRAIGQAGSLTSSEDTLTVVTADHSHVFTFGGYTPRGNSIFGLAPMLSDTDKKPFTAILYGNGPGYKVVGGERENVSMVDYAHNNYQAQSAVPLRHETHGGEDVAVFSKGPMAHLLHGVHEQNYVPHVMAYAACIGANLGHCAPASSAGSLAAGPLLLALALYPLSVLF

T3 sequence (P09923 whole entry): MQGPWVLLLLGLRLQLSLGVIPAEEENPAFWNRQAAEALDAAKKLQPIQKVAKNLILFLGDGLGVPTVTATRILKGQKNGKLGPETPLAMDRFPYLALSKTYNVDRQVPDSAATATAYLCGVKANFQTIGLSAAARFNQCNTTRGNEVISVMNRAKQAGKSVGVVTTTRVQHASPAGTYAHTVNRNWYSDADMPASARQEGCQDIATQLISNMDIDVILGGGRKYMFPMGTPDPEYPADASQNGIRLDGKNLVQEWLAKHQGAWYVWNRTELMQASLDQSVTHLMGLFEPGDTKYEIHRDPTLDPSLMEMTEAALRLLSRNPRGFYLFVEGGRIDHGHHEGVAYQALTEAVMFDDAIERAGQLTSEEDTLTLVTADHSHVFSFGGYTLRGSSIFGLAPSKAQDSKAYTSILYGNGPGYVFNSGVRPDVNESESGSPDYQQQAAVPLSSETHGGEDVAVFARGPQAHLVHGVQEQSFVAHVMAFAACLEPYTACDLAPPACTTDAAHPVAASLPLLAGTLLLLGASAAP
Exodeoxyribonuclease V, sequence (P04993 whole entry): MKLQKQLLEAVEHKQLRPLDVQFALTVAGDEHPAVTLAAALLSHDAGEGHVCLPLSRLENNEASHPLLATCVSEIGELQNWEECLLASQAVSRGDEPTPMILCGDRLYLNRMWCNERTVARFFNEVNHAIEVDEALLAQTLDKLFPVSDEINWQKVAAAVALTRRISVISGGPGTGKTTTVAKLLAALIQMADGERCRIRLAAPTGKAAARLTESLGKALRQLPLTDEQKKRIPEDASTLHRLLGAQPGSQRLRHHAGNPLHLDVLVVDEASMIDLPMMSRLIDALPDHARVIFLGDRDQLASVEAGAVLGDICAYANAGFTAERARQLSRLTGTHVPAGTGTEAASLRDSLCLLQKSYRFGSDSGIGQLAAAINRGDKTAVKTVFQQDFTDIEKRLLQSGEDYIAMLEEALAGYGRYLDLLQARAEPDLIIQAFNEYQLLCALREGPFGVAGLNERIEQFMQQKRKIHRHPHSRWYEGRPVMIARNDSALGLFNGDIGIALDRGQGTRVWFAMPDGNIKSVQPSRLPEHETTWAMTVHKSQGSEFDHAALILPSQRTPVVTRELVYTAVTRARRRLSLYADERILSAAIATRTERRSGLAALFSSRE
Exodeoxyribonuclease V, sequence (P07648 whole entry): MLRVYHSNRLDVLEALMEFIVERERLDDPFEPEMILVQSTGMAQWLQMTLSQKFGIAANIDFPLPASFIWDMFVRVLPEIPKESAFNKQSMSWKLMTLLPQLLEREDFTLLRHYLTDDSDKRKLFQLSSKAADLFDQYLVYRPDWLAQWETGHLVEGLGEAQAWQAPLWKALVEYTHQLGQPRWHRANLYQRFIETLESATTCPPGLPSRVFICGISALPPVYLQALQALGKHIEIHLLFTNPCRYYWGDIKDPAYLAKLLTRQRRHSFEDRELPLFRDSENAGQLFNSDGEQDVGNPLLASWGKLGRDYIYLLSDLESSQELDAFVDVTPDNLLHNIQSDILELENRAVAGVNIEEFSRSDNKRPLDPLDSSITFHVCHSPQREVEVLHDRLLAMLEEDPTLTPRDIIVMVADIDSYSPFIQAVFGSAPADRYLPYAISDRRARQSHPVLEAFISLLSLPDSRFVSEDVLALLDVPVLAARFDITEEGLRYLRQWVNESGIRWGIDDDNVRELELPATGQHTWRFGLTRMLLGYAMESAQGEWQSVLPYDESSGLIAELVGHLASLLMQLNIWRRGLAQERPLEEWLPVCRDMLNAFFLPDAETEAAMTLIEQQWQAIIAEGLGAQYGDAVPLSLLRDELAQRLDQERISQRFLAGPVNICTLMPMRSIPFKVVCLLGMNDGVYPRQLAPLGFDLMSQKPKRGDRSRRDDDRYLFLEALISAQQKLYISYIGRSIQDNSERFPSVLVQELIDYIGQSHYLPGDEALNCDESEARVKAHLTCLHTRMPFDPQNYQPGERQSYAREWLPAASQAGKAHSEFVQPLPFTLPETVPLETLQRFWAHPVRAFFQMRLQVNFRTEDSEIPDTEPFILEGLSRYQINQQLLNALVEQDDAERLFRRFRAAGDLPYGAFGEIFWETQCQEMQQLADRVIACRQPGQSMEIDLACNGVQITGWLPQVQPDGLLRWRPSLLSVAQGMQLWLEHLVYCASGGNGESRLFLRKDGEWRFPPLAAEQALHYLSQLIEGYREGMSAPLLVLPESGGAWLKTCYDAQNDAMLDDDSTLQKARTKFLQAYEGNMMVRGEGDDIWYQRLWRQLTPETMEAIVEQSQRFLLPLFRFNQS
Exodeoxyribonuclease V, sequence (P08394 whole entry): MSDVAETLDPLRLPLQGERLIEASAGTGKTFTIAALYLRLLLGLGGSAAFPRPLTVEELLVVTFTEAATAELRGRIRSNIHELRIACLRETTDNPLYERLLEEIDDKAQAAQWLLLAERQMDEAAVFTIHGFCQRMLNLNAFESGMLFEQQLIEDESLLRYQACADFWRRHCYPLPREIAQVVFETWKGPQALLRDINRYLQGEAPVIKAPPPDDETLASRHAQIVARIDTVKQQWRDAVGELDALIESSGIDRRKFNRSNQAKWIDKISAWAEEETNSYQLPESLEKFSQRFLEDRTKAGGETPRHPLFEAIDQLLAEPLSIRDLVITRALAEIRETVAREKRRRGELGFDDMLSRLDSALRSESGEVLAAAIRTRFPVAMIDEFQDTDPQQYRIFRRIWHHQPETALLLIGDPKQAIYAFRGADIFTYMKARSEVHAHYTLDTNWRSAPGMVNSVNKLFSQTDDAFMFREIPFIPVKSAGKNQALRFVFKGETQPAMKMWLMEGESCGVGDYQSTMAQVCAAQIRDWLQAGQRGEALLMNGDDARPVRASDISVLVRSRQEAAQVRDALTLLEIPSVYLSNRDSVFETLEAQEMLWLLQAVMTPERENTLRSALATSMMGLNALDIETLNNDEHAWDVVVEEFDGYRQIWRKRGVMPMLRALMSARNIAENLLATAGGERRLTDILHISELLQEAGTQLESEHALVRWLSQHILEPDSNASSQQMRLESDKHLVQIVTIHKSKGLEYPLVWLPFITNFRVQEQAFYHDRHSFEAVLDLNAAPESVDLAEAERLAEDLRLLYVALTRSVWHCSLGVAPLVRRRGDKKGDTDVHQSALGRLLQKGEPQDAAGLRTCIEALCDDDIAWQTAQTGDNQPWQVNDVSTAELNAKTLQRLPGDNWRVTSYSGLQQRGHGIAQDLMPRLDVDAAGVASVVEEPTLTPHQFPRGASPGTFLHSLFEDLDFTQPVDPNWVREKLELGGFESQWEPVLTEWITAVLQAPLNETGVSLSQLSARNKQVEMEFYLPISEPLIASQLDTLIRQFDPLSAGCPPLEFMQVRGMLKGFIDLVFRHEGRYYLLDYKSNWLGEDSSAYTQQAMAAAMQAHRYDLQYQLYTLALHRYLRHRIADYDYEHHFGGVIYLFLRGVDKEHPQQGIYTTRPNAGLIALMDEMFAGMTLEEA
Nucleotide-binding oligomerization domain-containing protein 2, sequence (Q9HC29 whole entry, the tested form may be a part): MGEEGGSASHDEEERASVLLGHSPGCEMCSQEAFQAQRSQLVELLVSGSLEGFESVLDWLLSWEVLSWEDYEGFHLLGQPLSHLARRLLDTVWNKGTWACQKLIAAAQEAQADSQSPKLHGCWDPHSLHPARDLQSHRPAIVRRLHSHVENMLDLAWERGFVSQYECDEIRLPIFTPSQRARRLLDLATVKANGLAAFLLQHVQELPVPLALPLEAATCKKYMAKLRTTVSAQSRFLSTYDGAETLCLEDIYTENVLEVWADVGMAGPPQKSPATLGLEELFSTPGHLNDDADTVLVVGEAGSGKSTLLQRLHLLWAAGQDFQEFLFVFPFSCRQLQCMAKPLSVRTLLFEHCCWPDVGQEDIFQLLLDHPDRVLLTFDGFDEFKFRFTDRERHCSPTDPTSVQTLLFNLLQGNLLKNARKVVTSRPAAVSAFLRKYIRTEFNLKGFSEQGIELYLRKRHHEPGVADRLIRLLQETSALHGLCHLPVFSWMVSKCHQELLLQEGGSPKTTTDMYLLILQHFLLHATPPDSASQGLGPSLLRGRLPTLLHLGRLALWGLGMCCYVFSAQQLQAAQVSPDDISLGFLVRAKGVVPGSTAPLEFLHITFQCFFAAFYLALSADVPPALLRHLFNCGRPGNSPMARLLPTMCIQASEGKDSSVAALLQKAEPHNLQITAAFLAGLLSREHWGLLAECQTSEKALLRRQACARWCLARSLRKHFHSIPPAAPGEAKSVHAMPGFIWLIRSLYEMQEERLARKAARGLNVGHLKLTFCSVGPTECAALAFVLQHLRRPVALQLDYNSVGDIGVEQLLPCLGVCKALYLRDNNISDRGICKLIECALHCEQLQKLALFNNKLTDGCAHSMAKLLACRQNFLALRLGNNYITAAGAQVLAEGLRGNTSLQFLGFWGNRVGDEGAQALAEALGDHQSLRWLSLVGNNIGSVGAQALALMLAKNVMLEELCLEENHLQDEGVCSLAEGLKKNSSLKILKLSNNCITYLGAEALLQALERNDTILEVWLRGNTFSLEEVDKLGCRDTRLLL
Cysteine protease ATG4B, sequence (Q9Y4P1 whole entry): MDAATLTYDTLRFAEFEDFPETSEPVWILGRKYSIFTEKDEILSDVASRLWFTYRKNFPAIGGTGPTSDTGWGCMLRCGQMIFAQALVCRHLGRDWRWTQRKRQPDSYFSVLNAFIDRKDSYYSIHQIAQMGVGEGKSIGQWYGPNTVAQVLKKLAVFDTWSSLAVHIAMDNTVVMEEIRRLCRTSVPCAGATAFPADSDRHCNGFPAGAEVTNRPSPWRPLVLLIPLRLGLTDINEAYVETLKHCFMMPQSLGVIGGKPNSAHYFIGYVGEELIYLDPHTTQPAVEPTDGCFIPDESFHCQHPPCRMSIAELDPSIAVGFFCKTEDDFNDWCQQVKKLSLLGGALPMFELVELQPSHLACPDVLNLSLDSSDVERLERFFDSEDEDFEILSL
Phospholipase A2, sequence (P04054 whole entry): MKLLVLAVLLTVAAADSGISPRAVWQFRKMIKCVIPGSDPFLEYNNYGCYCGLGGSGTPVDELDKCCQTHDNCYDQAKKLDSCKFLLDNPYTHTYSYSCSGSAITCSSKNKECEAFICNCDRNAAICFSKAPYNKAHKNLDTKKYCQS

Compound: Cn1c(=O)cc(SCC(=O)N2CCN(c3ccccn3)CC2)c2ccccc21
- EC50 [1]: > 79.4 µM (not active)
- EC50 [2]: > 79.4 µM (not active)
- EC50 [3]: > 79.4 µM (inactive)

Compound: COc1ccc(-c2nnc(CSc3nc4ccccc4c(=O)n3CC(C)C)o2)cc1OC
- IC50 [4]: 6.22 µM (active)
- IC50 [5]: 1.19 µM (active)

Compound: Cc1ccc(C(C)C)c(OCc2ccc(C(=O)N/N=C/c3cccc(O)c3O)cc2)c1
- EC50 [6]: 4.88 µM (active)
- IC50 [7]: > 20 µM (inactive)
- EC50 [8]: 0.54 µM (active)
- EC50 [9]: > 20 µM (inactive)
- IC50 [10]: 1.16 µM (active)
- EC50 [11]: 1.87 µM (active)
- EC50 [12]: > 150 µM (not active)
- EC50 [13]: 0.976 µM (active)
- EC50 [14]: 9.95 µM (active)
- EC50 [15]: 0.928 µM (active)
- EC50 [16]: 5.32 µM (active)
- IC50 [17]: > 119 µM (inactive)
- EC50 [18]: 0.533 µM (active)
- AC50 [19]: 0.832 µM (active)
- EC50 [20]: 6.18 µM (active)
- EC50 [21]: 3.17 µM (active)
- EC50 [22]: 0.979 µM (active)
- EC50 [23]: 2.58 µM (active)
- IC50 [24]: 1.67 µM (active)
- EC50 [25]: > 20 µM (inactive)
- IC50 [26]: > 119 µM (inactive)
- EC50 [27]: 1.24 µM (active)
- IC50 [28]: > 20 µM (inactive)
- EC50 [29]: 7.23 µM (active)
- EC50 [30]: > 350 µM (not active)
- AC50 [31]: 4.01 µM (active)

Compound: O=c1c(O[C@@H]2O[C@H](CO)[C@@H](O)[C@H](O)[C@H]2O)c(-c2ccc(O)c(O)c2)oc2cc(O)cc(O)c12 [ISOQUERCETIN]
- IC50 [32]: 8.96 µM (active)
- IC50 [33]: 1.66 µM (active)
- IC50 [34]: 5.25 µM (active)
- IC50 [35]: 14 µM (active)
